In US6410791B1, “Nitric esters and nitrate salts of specific drugs” (priority 1998, dated 2002):
Structures can show the parent of a compound that is named as a salt.

Key:
tracheal secretion = assay: Mucolitic activity: phenol red in the tracheal secretion; format: in vivo; settings: male mice, 264 micromoles/Kg i.p. ten minutes before phenol red 500 mg/Kg i.p.; % variation of absorbance versus control group = 100%
Procedure: Mucolitic activity in male mice was evaluated according to the Method of Engler and Zselenyi, J. Pharm. Methods 11, 151, 1984. By this method it is determined the quantity of phenol red in the tracheal secretion. The animals were previously administered i.p. at a dose of 500 mg/Kg with the dye dissolved in physiologic solution. 3 groups of mice (weight 18±2 g), of 10 animal each, were treated i.p. with the dye. One group was the control group. Each of the two treated groups received, ten minutes before the above injection, an i.p. injection of 264 micromoles/Kg of Ambroxol nitrate or Ambroxol hydrochloride, respectively. 30 minutes after the phenol red injection, the animals were sacrificed. The trachea was freed from the surrounding tissues, dissected and washed for 30 minutes in 3 ml of physiologic solution. 0.1 ml of 1 M sodium hydroxide were then added to the physiologic solution. The washings were centrifuged for 15 minutes at 3000 rpm. A spectrophotometric assay was performed on the supernatant in order to determine the concentration of phenol red in the physiologic solution. Mucolitic activity was determined as % variation of absorbance of the sample in the confront of that of the control group, assumed to be 100%.

histamine = assay: Antihistaminic activity: experimental bronchoconstriction after i.v. histamine; format: in vivo; settings: guinea pig, histamine 2 μg/Kg i.v., compound endovenously, percent values with respect to the control (vehicle = 100)
[1] = tested on: cough stroke caused by the aerosol (citric acid); assay: Anti-tussive activity: cough strokes caused by citric acid aerosol; format: in vivo, Guinea pigs; settings: guinea pig, citric acid 7.5% aerosol, 110 micromoles/Kg i.p., 30 minutes after injection, counted for 10 minutes; control group = 100%
Procedure: Guinea pigs (weight 430+20) were treated as described by Braga et Al. Arzneim. Forsch./Drug Res. 43, 550, 1993.
In this pharmacological experiment 5 groups of 8 animals each were formed. One group was not treated and was the control group.
Each animal was placed in a cylindrical glass container having one tubing through each of the two circular flat surfaces. Said tubing were, respectively, for the aerosol inlet and outlet. The outlet tubing is connected to a polygraphic system.
The aerosol was formed from a solution 7.5% by weight of citric acid in water.
The air variation inside the glass container was registered before and after a cough stroke caused by the aerosol. One hour later Dextromethorphan hydrochloride, Dextromethorphan nitrate, Dextrorphan hydrochloride and dextrorphan nitrate were i.p. administered in a physiologic solution at a dose of 110 micromoles/Kg. 30 minutes after the injection the animals were treated with the aerosol. It was then registered the number of cough strokes for a time of 10 minutes. In the following Table III are reported the average response obtained from each treated group, referred to that of the control group, made 100%.

heart frequency = assay: Heart frequency (tachycardia) by electrocardiographic device during the capsaicin bronchoconstriction test; format: in vivo; settings: guinea pig, 0.3 nmoles/min i.v. infusion for 15 minutes; percent values with respect to the control (carrier = 100; vehicle 188±7 beats per minute)
Procedure: (§1) Each groups consisted of eight animals. […] For a total 15 minutes, starting from 5 minutes before capsaicin injection to 10 minutes after) Salbutamol (0.3 nmoles/min), or the corresponding nitrate salt (0.3 nmoles/min) or only the carrier were administered by intravenous infusion were administered to each group.
The heart frequency was determined by an electrocardiographic device, according to the usual methods.

[2] = tested on: bronchoconstrictive response induced by capsaicin; assay: Experimental bronchoconstriction induced by capsaicin (tidal air variation, Konzett apparatus); format: in vivo; settings: guinea pig, capsaicin 1 μg/Kg i.v., 0.3 nmoles/min i.v. infusion for 15 minutes; percent values with respect to the control (carrier = 100)
Procedure: as §1
The heart frequency was determined by an electrocardiographic device, according to the usual methods. The average value of the heart frequency following administration of the vehicle was of 188±7 beats per minute.

Structure (SMILES): Nc1c(Br)cc(Br)cc1CN[C@H]1CC[C@H](O)CC1 [Ambroxol hydrochloride]
- Mucolitic activity (%) (tracheal secretion): 30%

Structure (SMILES): Nc1c(Br)cc(Br)cc1CNC1CCC(O)CC1 (stereo not drawn) [Ambroxol nitrate]
- Mucolitic activity (%) (tracheal secretion): 0%

Structure (SMILES): O=C(O)COCCN1CCN(C(c2ccccc2)c2ccc(Cl)cc2)CC1 (stereo not drawn) [Cetirizine hydrochloride]
- Broncocostriction (%) (histamine; hydrochloride): 40%

Structure (SMILES): O=C(O)COCCN1CCN(C(c2ccccc2)c2ccc(Cl)cc2)CC1 (stereo not drawn) [Cetirizine nitrate]
- Broncocostriction (%) (histamine): 0%

Structure (SMILES): COc1ccc2c(c1)[C@]13CCCC[C@@H]1[C@H](C2)N(C)CC3 [Dextromethorphan hydrochloride]
- cough strokes (%) [1]: 30%

Structure (SMILES): COc1ccc2c(c1)[C@@]13CCCC[C@H]1[C@@H](C2)N(C)CC3 [Dextromethorphan nitrate]
- cough strokes (%) [1]: 0%

Structure (SMILES): CN1CC[C@@]23CCCC[C@@H]2[C@@H]1Cc1ccc(O)cc13 [Dextrorphan hydrochloride]
- cough strokes (%) [1]: 40%

Structure (SMILES): CN1CC[C@]23CCCC[C@H]2[C@H]1Cc1ccc(O)cc13 [Dextrorphan nitrate]
- cough strokes (%) [1]: 0%

Structure (SMILES): CC(C)(C)NCC(O)c1ccc(O)c(CO)c1 (stereo not drawn) [Salbutamol.HNO3, Salbutamol nitrate]
- Tachycardia (%) (heart frequency): 97%
- Bronchoconstriction (%) [2]: 0%

Structure (SMILES): CC(C)(C)NCC(O)c1ccc(O)c(CO)c1 (stereo not drawn) [Salbutamol]
- Tachycardia (%) (heart frequency): 116%
- Bronchoconstriction (%) [2]: 0%
